According to US10941157B2, “Pesticidal compositions and uses thereof” (Gilead Apollo, LLC, priority 2015, dated 2021):
Converted amounts (≈) assume the structure as drawn. Like-named read-outs stand apart in the source and are kept apart here.

Experiments:
Type in all cases: cell-based
[1] = system: Botrtyis cinerea (Bc); test: In vitro pathogen growth inhibition assay, Bc; details: 48 h
Summary of the method: (§1)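 Spores in 17% V8 liquid medium, or 1.5 mm Rs mycelial plugs in ¼ PDB, incubated with compound; final concentration checked by OD600 for precipitation. OD readings at 24 and 48 h, blank-subtracted, plus visual ratings; value is concentration giving ≥90% growth inhibition.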

[2] = system: Collectotrichum graminicola (Cg); test: In vitro pathogen growth inhibition assay, Cg; details: 48 h
Summary of the method: as §1

[3] = system: Diplodia maydis (Dm); test: In vitro pathogen growth inhibition assay, Dm; details: Stenocarpella maydis, 48 h
Summary of the method: (§2)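 Spores of Dm, Fv and Pc were diluted in 17% V8 liquid medium; Rs used 1.5 mm mycelial plugs in ¼ PDB. Compounds from 2.5 mg/ml DMSO stocks were combined with inoculum, growth was read by OD600 at 24 and 48 h with blank subtraction, and the reported value is the concentration giving ≥90% inhibition.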

[4] = system: Fusarium moniliforme (Fm); test: In vitro pathogen growth inhibition assay, Fm; details: Fusarium verticillioides
Summary of the method: as §1

[5] = system: Fusarium virguliforme (Fv); test: In vitro pathogen growth inhibition assay, Fv
Summary of the method: as §2

[6] = system: Phytophthora capsici (Pc); test: In vitro pathogen growth inhibition assay, Pc; details: 48 h
Summary of the method: as §2

[7] = system: Rhizoctonia solani (Rs); test: In vitro pathogen growth inhibition assay, Rs (mycelial plugs); details: Rhizoctonia solani, 48 h
Summary of the method: as §2

[8] = system: Septoria tritici (St); test: In vitro pathogen growth inhibition assay, St; details: Zymoseptoria tritici, 48 h
Summary of the method: as §1

[9] = ≥90% growth inhibition, 48 hours, vs 2% DMSO control, read-out: Compound Concentration (ppm) sufficient for ≥90% inhibition of Bc
[10] = ≥90% growth inhibition, 48 hours, vs 2% DMSO control, read-out: Compound Concentration (ppm) sufficient for ≥90% inhibition of Cg
[11] = ≥90% growth inhibition, 48 hours, vs 2% DMSO control, read-out: Compound Concentration (ppm) sufficient for ≥90% inhibition of Dm
[12] = ≥90% growth inhibition, 48 hours, vs 2% DMSO control, read-out: Compound Concentration (ppm) sufficient for ≥90% inhibition of Fm
[13] = ≥90% growth inhibition, 48 hours, vs 2% DMSO control, read-out: Compound Concentration (ppm) sufficient for ≥90% inhibition of Fv
[14] = ≥90% growth inhibition, 48 hours, vs 2% DMSO control, read-out: Compound Concentration (ppm) sufficient for ≥90% inhibition of Pc
[15] = ≥90% growth inhibition, mycelial plugs, 48 hours, vs 2% DMSO control, read-out: Compound Concentration (ppm) sufficient for ≥90% inhibition of Rs
[16] = ≥90% growth inhibition, 48 hours, vs 2% DMSO control, read-out: Compound Concentration (ppm) sufficient for ≥90% inhibition of St
[17] = concentration sufficient to ≥90% inhibition of growth, 48 hours vs 2% DMSO control, read-out: Compound Concentration (ppm) for ≥90% inhibition, Bc
[18] = concentration sufficient to ≥90% inhibition of growth, 48 hours vs 2% DMSO control, read-out: Compound Concentration (ppm) for ≥90% inhibition, Cg
[19] = concentration sufficient to ≥90% inhibition of growth, 48 hours vs 2% DMSO control, read-out: Compound Concentration (ppm) for ≥90% inhibition, Dm
[20] = concentration sufficient to ≥90% inhibition of growth, 48 hours vs 2% DMSO control, read-out: Compound Concentration (ppm) for ≥90% inhibition, Fm
[21] = concentration sufficient to ≥90% inhibition of growth, 48 hours vs 2% DMSO control, read-out: Compound Concentration (ppm) for ≥90% inhibition, Fv
[22] = concentration sufficient to ≥90% inhibition of growth, 48 hours vs 2% DMSO control, read-out: Compound Concentration (ppm) for ≥90% inhibition, Pc
[23] = concentration sufficient to ≥90% inhibition of growth, 48 hours vs 2% DMSO control, read-out: Compound Concentration (ppm) for ≥90% inhibition, Rs
[24] = concentration sufficient to ≥90% inhibition of growth, 48 hours vs 2% DMSO control, read-out: Compound Concentration (ppm) for ≥90% inhibition, St
[25] = ≥90% inhibition, 48 hours vs 2% DMSO control, read-out: Compound Concentration (ppm) sufficient for ≥90% inhibition of growth, Bc
[26] = ≥90% inhibition, 48 hours vs 2% DMSO control, read-out: Compound Concentration (ppm) sufficient for ≥90% inhibition of growth, Cg
[27] = ≥90% inhibition, 48 hours vs 2% DMSO control, read-out: Compound Concentration (ppm) sufficient for ≥90% inhibition of growth, Dm
[28] = ≥90% inhibition, 48 hours vs 2% DMSO control, read-out: Compound Concentration (ppm) sufficient for ≥90% inhibition of growth, Fm
[29] = ≥90% inhibition, 48 hours vs 2% DMSO control, read-out: Compound Concentration (ppm) sufficient for ≥90% inhibition of growth, Fv
[30] = ≥90% inhibition, 48 hours vs 2% DMSO control, read-out: Compound Concentration (ppm) sufficient for ≥90% inhibition of growth, Pc
[31] = ≥90% inhibition, mycelial plugs, 48 hours vs 2% DMSO control, read-out: Compound Concentration (ppm) sufficient for ≥90% inhibition of growth, Rs
[32] = ≥90% inhibition, 48 hours vs 2% DMSO control, read-out: Compound Concentration (ppm) sufficient for ≥90% inhibition of growth, St

| Compound | IC90 [1, 9] [µg/mL] | IC90 [2, 10] [µg/mL] | IC90 [3, 11] [µg/mL] | IC90 [4, 12] [µg/mL] | IC90 [5, 13] [µg/mL] | IC90 [6, 14] [µg/mL] | IC90 [7, 15] [µg/mL] | IC90 [8, 16] [µg/mL] | IC90 [1, 17] [µg/mL] | IC90 [2, 18] [µg/mL] | IC90 [3, 19] [µg/mL] | IC90 [4, 20] [µg/mL] | IC90 [5, 21] [µg/mL] | IC90 [6, 22] [µg/mL] | IC90 [7, 23] [µg/mL] | IC90 [8, 24] [µg/mL] | IC90 [1, 25] [µg/mL] | IC90 [2, 26] [µg/mL] | IC90 [3, 27] [µg/mL] | IC90 [4, 28] [µg/mL] | further results |
| --- | --- | --- | --- | --- | --- | --- | --- | --- | --- | --- | --- | --- | --- | --- | --- | --- | --- | --- | --- | --- | --- |
| COc1ccc(F)cc1[C@H](Cn1c(=O)n([C@H](C)C(=O)N(C)C(C)C)c(=O)c2c(C)c(-n3cccn3)sc21)OCCO [Compound I-250] | 2 (≈ 3.4 µM) | 10 (≈ 17 µM) | > 50 | 2 (≈ 3.4 µM) | 2 (≈ 3.4 µM) | > 50 | 2 (≈ 3.4 µM) | > 50 |  |  |  |  |  |  |  |  |  |  |  |  |  |
| CCOC(=O)c1sc2c(c1C)c(=O)n([C@@H](C)C(N)=O)c(=O)n2C[C@H](OCCC#N)c1cc(F)ccc1OC [Compound I-227] |  |  |  |  |  |  |  |  | 50 (≈ 91.5 µM) | > 50 | > 50 | 10 (≈ 18.3 µM) | > 50 | > 50 | 0.4 (≈ 0.732 µM) | > 50 |  |  |  |  |  |
| COc1ccc(F)cc1[C@H](Cn1c(=O)n([C@@H](C)C(N)=O)c(=O)c2c(C)c(-n3nccn3)sc21)OCC(C)(C)C#N [Compound I-256] |  |  |  |  |  |  |  |  | 50 (≈ 87.8 µM) | 50 (≈ 87.8 µM) | 50 (≈ 87.8 µM) | 10 (≈ 17.6 µM) | 50 (≈ 87.8 µM) | > 50 | 50 (≈ 87.8 µM) | > 50 |  |  |  |  |  |
| COc1ccc(F)cc1[C@H](Cn1c(=O)n(C(C)(C)C(N)=O)c(=O)c2c(C)c(-n3nccn3)sc21)OC(C)C [Compound I-113] |  |  |  |  |  |  |  |  |  |  |  |  |  |  |  |  | 2 (≈ 3.67 µM) | 2 (≈ 3.67 µM) | 2 (≈ 3.67 µM) | 0.4 (≈ 0.734 µM) | IC90 [5, 29]: 0.4 µg/mL (≈ 0.734 µM); IC90 [6, 30]: > 50 µg/mL; IC90 [7, 31]: 0.08 µg/mL (≈ 0.147 µM); IC90 [8, 32]: 50 µg/mL (≈ 91.8 µM) |
| CCNC(=O)C(C)(C)n1c(=O)c2c(C)c(C(=O)OCC)sc2n(C[C@H](OC2CCOCC2)c2ccccc2OC)c1=O [Compound I-175] |  |  |  |  |  |  |  |  | 2 (≈ 3.32 µM) | 50 (≈ 83.1 µM) | 10 (≈ 16.6 µM) | 10 (≈ 16.6 µM) | 10 (≈ 16.6 µM) | > 50 | > 50 | > 50 |  |  |  |  |  |
| COc1ccc(F)cc1[C@H](Cn1c(=O)n(C(C)(C)C(=O)N2CCCC2)c(=O)c2c(C)c(-n3cccn3)sc21)OC(C)C [Compound I-044] |  |  |  |  |  |  |  |  |  |  |  |  |  |  |  |  | 0.4 (≈ 0.669 µM) | 0.4 (≈ 0.669 µM) | 2 (≈ 3.35 µM) | 0.08 (≈ 0.134 µM) | IC90 [5, 29]: 0.4 µg/mL (≈ 0.669 µM); IC90 [6, 30]: > 50 µg/mL; IC90 [7, 31]: 0.4 µg/mL (≈ 0.669 µM); IC90 [8, 32]: > 50 µg/mL |
| COc1ccc(F)cc1[C@H](Cn1c(=O)n(C(C)(C)C(=O)N2CC=CC2)c(=O)c2c(C)c(-n3nccn3)sc21)OC(C)C [Compound I-067] |  |  |  |  |  |  |  |  |  |  |  |  |  |  |  |  | 0.4 (≈ 0.67 µM) | 0.08 (≈ 0.134 µM) | 0.08 (≈ 0.134 µM) | 0.08 (≈ 0.134 µM) | IC90 [5, 29]: 0.4 µg/mL (≈ 0.67 µM); IC90 [6, 30]: > 50 µg/mL; IC90 [7, 31]: 0.4 µg/mL (≈ 0.67 µM); IC90 [8, 32]: ≥ 2 µg/mL |
| COc1ccc(F)cc1[C@H](Cn1c(=O)n(C(C)(C)C(N)=O)c(=O)c2c(C)c(-n3cccn3)sc21)OC1CCC(=O)CC1 [Compound I-170] | 10 (≈ 16.7 µM) | ≥ 50 | 50 (≈ 83.7 µM) | ≥ 2 | > 50 | > 50 | 50 (≈ 83.7 µM) | > 50 |  |  |  |  |  |  |  |  |  |  |  |  |  |
| Cc1ccc(F)cc1[C@H](Cn1c(=O)n(C(C)(C)C(=O)NC(C)C)c(=O)c2c(C)c(-n3nccn3)sc21)OCCO [Compound I-245] | 0.4 (≈ 0.698 µM) | 0.4 (≈ 0.698 µM) | 2 (≈ 3.49 µM) | 0.08 (≈ 0.14 µM) | 0.08 (≈ 0.14 µM) | 50 (≈ 87.3 µM) | 0.08 (≈ 0.14 µM) | ≥ 2 |  |  |  |  |  |  |  |  |  |  |  |  |  |
| COc1ccc(F)cc1[C@H](Cn1c(=O)n([C@@H](C)C(=O)N2CCCC2)c(=O)c2c(C)c(-n3cccn3)sc21)OCCC#N [Compound I-313] | > 50 | 50 (≈ 84.1 µM) | > 50 | 2 (≈ 3.36 µM) | 50 (≈ 84.1 µM) | > 50 | 50 (≈ 84.1 µM) | > 50 |  |  |  |  |  |  |  |  |  |  |  |  |  |
